Values of other authors as cited in US6764693B1, “Free radical quenching composition and a method to increase intracellular and/or extracellular antioxidants” (Amaox, Ltd., priority 1992, dated 2004).

Key:
[1] = separate experimental protocols
[2] = oxidants from activated leukocytes
[3] = antioxidant placed in liposomes
[4] = tested on: HIV in U1 cell line (promonocytes); settings: increasing thiol concentration in culture medium of U1 cells
[5] = pH of 1.0
T lymphocytes = settings: activated leukocytes combined with T lymphocytes
[6] = free GSH, intravenous

Molecule | mortality [1] [%] | effect on lipid peroxidation of liposomes [2] | effect on HIV [4] | further results
Cc1c(C)c2c(c(C)c1O)CCC(C)(CCCC(C)CCCC(C)CCCC(C)C)O2 (stereo not drawn) [vitamin E, alpha-tocopherol] | 46 | conferred protection against lipid peroxidation |  | effect on lipid peroxidation in liposomes exposed to uv [3]: inhibited
beta carotene [beta-carotene] |  | conferred protection against lipid peroxidation |  | effect on lipid peroxidation in liposomes exposed to uv [3]: inhibited
CC(=O)N[C@@H](CS)C(=O)O [NAC, N-acetyl-cysteine] |  |  | suppression of viral assembly, HIV reverse transcriptase production and viral replication | rate constant K2 against the hydroxyl radical [5]: 1.36×10^10
CC(C)(C)/[N+]([O-])=C/c1ccccc1 [PBN, phenyltertylnitrone] | 42 |  |  | 
catalase |  | inhibited peroxidation |  | suppression of lymphocytic function (T lymphocytes): no suppression of lymphocytic function
glutathione ester [GSE] |  |  | suppression of viral assembly, HIV reverse transcriptase production and viral replication | 
N[C@@H](CCC(=O)N[C@@H](CS)C(=O)NCC(=O)O)C(=O)O [glutathione] | 100 |  | suppression of viral assembly, HIV reverse transcriptase production and viral replication | t½ [6]: approximately 1.6 minutes; rate constant K2 against the hydroxyl radical [5]: 8.8×10^9
